Laboratory results as given in paper PMC11352859, “Functionalized Congeners of 2H-Chromene P2Y6 Receptor Antagonists” (Cells, 2024).
Read-outs that look alike come from different tables or passages of the source.

How the values were obtained:
other P2YRs = conditions: at high µM concentrations; ref [29],[43]; cited from earlier work
hP2Y14R = molecular target: T1, hP2Y14R (Homo sapiens, UniProt Q15391); parameters: method as in PMID 28527783, PMID 23235874; conditions: previous members of the series; ref [29],[43]; cited from earlier work
T1 construct: expressed in transfected cells
T1 sequence (Q15391 1-338): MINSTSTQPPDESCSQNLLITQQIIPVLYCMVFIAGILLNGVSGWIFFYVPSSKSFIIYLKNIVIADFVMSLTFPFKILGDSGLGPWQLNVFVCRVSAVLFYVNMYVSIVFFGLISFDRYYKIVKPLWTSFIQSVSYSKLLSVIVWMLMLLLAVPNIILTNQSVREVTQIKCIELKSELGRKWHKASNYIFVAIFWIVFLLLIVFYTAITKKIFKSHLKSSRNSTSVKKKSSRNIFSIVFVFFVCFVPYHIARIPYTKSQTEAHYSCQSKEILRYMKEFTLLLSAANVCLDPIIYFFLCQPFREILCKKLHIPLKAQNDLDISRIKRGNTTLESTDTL

hP2Y6R = molecular target: T2, hP2Y6R (Homo sapiens, UniProt Q15077); assay: UDP (100 nM)-induced Ca2+ mobilization in hP2Y6R stably transfected 1321N1 astrocytoma cells; type: cell-based; conditions: UDP 100 nM; for IC50: 3–4 independent triplicate determinations
T2 construct: expressed in transfected cells
Procedure: To screen for P2Y6R antagonist activity, PLC-mediated calcium mobilization assays were carried out using the recombinant human P2Y6R stably expressed in 1321N1 astrocytoma cells (hP2Y6R-1321N1) according to the previously published method. Briefly, the hP2Y6R-1321N1 cells were seeded on 96-well black plates and incubated overnight. The antagonists were pretreated along with the FLIPR dye (Calcium 6 assay kit, Molecular Devices, San Jose, CA, USA) containing 5 mM probenecid for 45 min, prior to agonist addition followed by an immediate intracellular Ca^2+ measurement. […] Here, probenecid was used as an organic anion transporter inhibitor to prevent the efflux of the dye into the extracellular environment. During incubation, the membrane permeable dye enters the cytoplasm and cleaves the acetoxymethyl protection to enable Ca^2+ binding. When the P2Y6R was activated by UDP, the increased calcium concentration was directly measured by intracellular changes in the fluorescence intensity with a Fluorescent Imaging Plate Reader (FLIPR^TETRA, Molecular Devices, San Jose, CA, USA).

D5 = molecular target: T3, D5 (Homo sapiens, UniProt P21918); assay: PDSP binding assay, D5; conditions: PDSP, mean, n = 2; read-out: Ki, D5
T3 construct: NIMH Psychoactive Drug Screening Program (PDSP)
Text: (§1) Table S2. Off-target screening (to replace table later). We thank Dr. Bryan L. Roth (Univ. North Carolina at Chapel Hill) and National Institute of Mental Health's Psychoactive Drug Screening Program (Contract # HHSN-271-2008-00025-C) for screening data. Reference: Besnard et al.
(§2) Procedures: https://pdsp.unc.edu/pdspweb/content/UNC-CH%20Protocol%20Book.pdf […]
(§3) nucleosides were found at the following sites (human unless noted): 5HT1A, 5HT1B, 5HT1D, […]
(§4) β3, BZP rat brain site, D1, D2, D3, D4, D5, GABAA, H1, H2, H3, H4, M1, M2, M5, δ-opioid receptor (DOR), κ-opioid receptor (KOR), μ-opioid receptor (MOR), σ1, σ2, DAT, NET, SERT. Ki values […]
(§5) Compound # PDSP # Receptor LogKi Ki (nM)

α2A = molecular target: T4, α2A (Homo sapiens, UniProt P08913); assay: PDSP binding assay, α2A; conditions: PDSP, mean, n = 2; read-out: Ki, α2A
T4 construct: NIMH Psychoactive Drug Screening Program (PDSP)
T4 sequence (P08913 1-465): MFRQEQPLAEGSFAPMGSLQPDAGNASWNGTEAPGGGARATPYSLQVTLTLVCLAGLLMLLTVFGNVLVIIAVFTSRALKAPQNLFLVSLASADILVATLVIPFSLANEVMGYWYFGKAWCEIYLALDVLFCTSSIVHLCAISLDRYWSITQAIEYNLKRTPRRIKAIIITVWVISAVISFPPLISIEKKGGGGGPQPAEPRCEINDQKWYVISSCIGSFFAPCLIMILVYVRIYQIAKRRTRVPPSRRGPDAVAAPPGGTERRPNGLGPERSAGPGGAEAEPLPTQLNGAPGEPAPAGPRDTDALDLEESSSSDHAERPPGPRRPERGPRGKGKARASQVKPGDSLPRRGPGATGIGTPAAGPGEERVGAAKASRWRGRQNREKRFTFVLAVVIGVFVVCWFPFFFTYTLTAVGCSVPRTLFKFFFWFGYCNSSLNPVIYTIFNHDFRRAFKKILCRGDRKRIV
Text: as §1, §2, §3, §4, §5

5-HT1D = molecular target: T5, 5-HT1D (Homo sapiens, UniProt P28221); assay: PDSP binding assay, 5-HT1D; conditions: PDSP, mean, n = 2; read-out: Ki, 5-HT1D
T5 construct: NIMH Psychoactive Drug Screening Program (PDSP)
Text: as §1, §2, §3, §4, §5

α2B = molecular target: T6, α2B (Homo sapiens, UniProt P18089); assay: PDSP binding assay, α2B; conditions: mean, n = 2
T6 construct: NIMH Psychoactive Drug Screening Program (PDSP)
T6 sequence (P18089 1-450): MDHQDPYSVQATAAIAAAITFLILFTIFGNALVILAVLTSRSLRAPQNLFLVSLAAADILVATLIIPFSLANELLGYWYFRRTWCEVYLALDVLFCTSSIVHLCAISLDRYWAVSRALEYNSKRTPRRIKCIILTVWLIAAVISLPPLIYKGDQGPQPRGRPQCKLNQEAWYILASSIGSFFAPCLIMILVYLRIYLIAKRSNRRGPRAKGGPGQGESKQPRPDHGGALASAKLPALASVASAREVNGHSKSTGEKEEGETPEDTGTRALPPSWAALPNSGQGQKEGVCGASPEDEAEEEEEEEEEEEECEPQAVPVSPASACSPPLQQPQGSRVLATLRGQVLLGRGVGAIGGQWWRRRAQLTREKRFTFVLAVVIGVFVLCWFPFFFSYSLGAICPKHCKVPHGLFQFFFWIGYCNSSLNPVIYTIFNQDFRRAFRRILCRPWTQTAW
Text: as §1, §2, §3, §4, §5

[1] = read-out: IC50, hP2Y6R (Mean ± SEM)

T2 sequence (Q15077 whole entry): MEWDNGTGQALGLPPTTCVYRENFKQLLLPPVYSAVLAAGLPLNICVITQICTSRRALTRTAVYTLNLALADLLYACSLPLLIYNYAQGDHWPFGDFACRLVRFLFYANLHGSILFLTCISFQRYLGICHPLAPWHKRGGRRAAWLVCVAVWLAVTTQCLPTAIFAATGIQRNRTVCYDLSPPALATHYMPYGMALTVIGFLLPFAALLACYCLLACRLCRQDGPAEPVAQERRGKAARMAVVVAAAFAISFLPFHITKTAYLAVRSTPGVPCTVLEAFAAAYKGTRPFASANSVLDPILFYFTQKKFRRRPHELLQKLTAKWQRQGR
T5 sequence (P28221 whole entry): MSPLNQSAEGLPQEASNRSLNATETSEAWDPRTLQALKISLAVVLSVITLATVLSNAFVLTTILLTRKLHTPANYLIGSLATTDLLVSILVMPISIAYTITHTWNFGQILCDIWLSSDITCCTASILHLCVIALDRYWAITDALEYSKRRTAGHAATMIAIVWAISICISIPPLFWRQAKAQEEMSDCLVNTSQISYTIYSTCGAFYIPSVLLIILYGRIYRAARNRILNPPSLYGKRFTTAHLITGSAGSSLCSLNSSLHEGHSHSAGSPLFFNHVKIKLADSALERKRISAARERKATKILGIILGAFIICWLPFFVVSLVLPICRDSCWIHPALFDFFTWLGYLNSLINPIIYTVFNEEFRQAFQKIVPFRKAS
T3 sequence (P21918 whole entry): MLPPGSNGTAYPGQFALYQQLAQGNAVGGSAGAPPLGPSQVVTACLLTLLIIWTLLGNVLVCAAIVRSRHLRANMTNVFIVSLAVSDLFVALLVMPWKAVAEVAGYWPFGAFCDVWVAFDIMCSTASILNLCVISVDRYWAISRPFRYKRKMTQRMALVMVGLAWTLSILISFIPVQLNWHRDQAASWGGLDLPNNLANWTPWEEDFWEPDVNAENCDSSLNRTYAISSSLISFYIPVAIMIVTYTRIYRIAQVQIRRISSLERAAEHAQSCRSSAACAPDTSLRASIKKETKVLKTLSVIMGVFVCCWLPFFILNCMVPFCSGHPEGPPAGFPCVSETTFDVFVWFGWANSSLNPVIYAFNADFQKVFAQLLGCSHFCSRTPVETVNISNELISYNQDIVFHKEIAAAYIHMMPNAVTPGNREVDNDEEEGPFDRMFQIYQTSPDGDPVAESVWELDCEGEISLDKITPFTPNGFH

SMILES | IC50 (hP2Y6R; [1]) [µM] | hP2Y14R binding (hP2Y14R) | further results
O=[N+]([O-])C1=Cc2ccccc2OC1C(F)(F)F (stereo not shown) [Compound 2a, reference compound] | 2.91 ± 1.21 | inactive | inhibition at most other P2YRs (other P2YRs): minor
CC(C)(C)n1nc(-c2nc3cc(Cl)ccc3[nH]2)cc1-c1ccco1 [Compound 4, reference compound] |  |  | inhibition at 100 µM (hP2Y6R; 1321-N1, at 100 µM): 18.9 ± 8.5%; IC50 (hP2Y6R; IC50, hP2Y6R (Mean ± SEM)): > 100 µM
O=[N+]([O-])C1=Cc2ccc(Cl)cc2OC1C(F)(F)F (stereo not shown) [Compound 7] |  | inactive | 
O=[N+]([O-])C1=Cc2cccc(Cl)c2OC1C(F)(F)F (stereo not shown) [Compound 8] |  | inactive | 
CC[Si](C#Cc1cccc2c1OC(C(F)(F)F)C([N+](=O)[O-])=C2)(CC)CC (stereo not shown) [Compound 14] |  |  | inhibition at most other P2YRs (other P2YRs): minor
O=[N+]([O-])C1=Cc2cc(C#Cc3ccc(O)cc3)ccc2OC1C(F)(F)F (stereo not shown) [Compound 15] |  | inactive | 
O=[N+]([O-])C1=Cc2cc(C#Cc3ccc(CO)cc3)ccc2OC1C(F)(F)F (stereo not shown) [Compound 16] |  | inactive | 
CC(C)(C)OC(=O)NCCC#Cc1ccc2c(c1)C=C([N+](=O)[O-])C(C(F)(F)F)O2 (stereo not shown) [Compound 20] | 0.587 ± 0.087 |  | Ki (D5): 4.4 µM; Ki (α2A): 1600 nM
CC(C)(C)OC(=O)NCCCC#Cc1ccc2c(c1)C=C([N+](=O)[O-])C(C(F)(F)F)O2 (stereo not shown) [Compound 22] | 1.87 ± 0.11 |  | 
CC(C)(C)OC(=O)NCCCCCC#Cc1ccc2c(c1)C=C([N+](=O)[O-])C(C(F)(F)F)O2 (stereo not shown) [Compound 26] | 1.19 ± 0.25 |  | Ki (5-HT1D): 4.8 µM; Ki (α2A): 750 nM; Ki (α2B): 1700 nM

Now from value to compound, other results behind:

IC50 (hP2Y6R; [1]) [µM] | SMILES | hP2Y14R binding (hP2Y14R) | further results
14 ± 4.7 | O=[N+]([O-])C1=Cc2cc(C#CCCCCCCCCBr)ccc2OC1C(F)(F)F (stereo not shown) [Compound 19] |  | 
22.6 ± 9.3 | NCCC#Cc1ccc2c(c1)C=C([N+](=O)[O-])C(C(F)(F)F)O2 (stereo not shown) [Compound 21] |  | 
9.98 ± 1.37 | NCCCC#Cc1ccc2c(c1)C=C([N+](=O)[O-])C(C(F)(F)F)O2 (stereo not shown) [Compound 23] |  | 
5.39 ± 1.49 | NCCCCC#Cc1ccc2c(c1)C=C([N+](=O)[O-])C(C(F)(F)F)O2 (stereo not shown) [Compound 25] |  | 
